Measured values reported in patent US20220289715A1, “PESTICIDALLY ACTIVE PYRAZINE-AMIDE COMPOUNDS” (priority 2019, published 2022).

How the values were obtained:
Format in all cases: in vivo
[1] = system: Diabrotica balteata (Corn Root Worm); experiment: Example B1: Diabrotica balteata, spray on maize sprouts; details: 96 h, application rate of 200 ppm, L2 larvae, 4 days after infestation, read-out: control in at least one of the two categories (mortality or growth inhibition)
How it was run: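 Maize sprouts on agar were sprayed with aqueous dilutions of DMSO stock solutions, dried, then infested with L2 larvae (6–10 per well). Mortality and growth inhibition were scored against untreated controls 4 days after infestation; test rate 200 ppm.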

[2] = system: Spodoptera littoralis (Egyptian Cotton Leaf Worm); experiment: Example B6: Spodoptera littoralis, spray on cotton leaf discs; details: foliar, 72 h, application rate of 200 ppm, L1 larvae, 3 days after infestation, read-out: control in at least one of the three categories (mortality, anti-feedant effect, or growth inhibition)
How it was run: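 Leaf discs on agar sprayed with aqueous solutions made from 10,000 ppm DMSO stocks, then infested after drying with five L1 larvae. Mortality, anti-feeding and growth inhibition scored against untreated samples 3 days after infestation.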

[3] = system: Euschistus heros (Neotropical Brown Stink Bug); experiment: Example B2: Euschistus heros, spray on soybean leaves; details: 120 h, application rate of 200 ppm, N2 nymphs, 5 days after infestation, read-out: control in at least one of the two categories (mortality or growth inhibition)
Procedure: Example B2: Euschistus heros (Neotropical Brown Stink Bug)
Soybean leaves on agar in 24-well microtiter plates were sprayed with aqueous test solutions prepared from 10,000 ppm DMSO stock solutions. After drying the leaves were infested with N2 nymphs. The samples were assessed for mortality and growth inhibition in comparison to untreated samples 5 days after infestation.
The following compounds gave an effect of at least 80% control in at least one of the two categories (mortality or growth inhibition) at an application rate of 200 ppm: […]

[4] = system: Plutella xylostella (Diamond Back Moth); experiment: Example B4: Plutella xylostella, artificial diet, 24-well; details: 192 h, application rate of 200 ppm, eggs, 8 days after infestation, read-out: control in at least one of the two categories (mortality or growth inhibition)
How it was run: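 Artificial diet in 24-well plates treated with aqueous dilutions of DMSO stocks, dried, then infested with diamondback moth eggs. Mortality and growth inhibition scored against untreated samples 8 days after infestation.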

[5] = system: Spodoptera littoralis (Egyptian Cotton Leaf Worm); experiment: Example B7: Spodoptera littoralis, uptake by lettuce roots from agar; details: 144 h, test rate of 12.5 ppm, absorbed by lettuce roots, eggs, 6 days after infestation, read-out: control in at least one of the three categories (mortality, anti-feeding, or growth inhibition)
Description: Example B7: Spodoptera littoralis (Egyptian Cotton Leaf Worm)
Test compounds were applied by pipette from 10,000 ppm DMSO stock solutions into 24-well plates and mixed with agar. Lettuce seeds were placed onto the agar and the multi well plate was closed by another plate which contained also agar. After 7 days the compound was absorbed by the roots and the lettuce grew into the lid plate. The lettuce leaves were then cut off into the lid plate. Spodoptera eggs were pipetted through a plastic stencil onto a humid gel blotting paper and the lid plate was closed with it. The samples were assessed for mortality, anti-feedant effect and growth inhibition in comparison to untreated samples 6 days after infestation.
The following compounds gave an effect of at least 80% control in at least one of the three categories (mortality, anti-feeding, or growth inhibition) at a test rate of 12.5 ppm: […]

[6] = system: Myzus persicae (Green Peach Aphid); experiment: Example B5: Myzus persicae, intrinsic activity; details: 120 h, test rate of 12 ppm, 5 days after infestation
Description: Example B5: Myzus persicae (Green Peach Aphid). Intrinsic Activity
Test compounds prepared from 10,000 ppm DMSO stock solutions were applied by pipette into 24-well microtiter plates and mixed with sucrose solution. The plates were closed with a stretched Parafilm. A plastic stencil with 24 holes was placed onto the plate and infested pea seedlings were placed directly on the Parafilm. The infested plate was closed with a gel blotting paper and another plastic stencil and then turned upside down. The samples were assessed for mortality 5 days after infestation.

[7] = system: Chilo suppressalis (Striped Rice Stemborer); experiment: Example B3: Chilo suppressalis, artificial diet; details: 144 h, application rate of 200 ppm, L2 larvae, 6 days after infestation, read-out: control in at least one of the three categories (mortality, anti-feedant effect, or growth inhibition)
How it was run: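 Artificial diet was treated with aqueous dilutions made from 10,000 ppm DMSO stocks, dried, and infested with L2 larvae (6-8 per well). After 6 days, mortality, anti-feeding effect and growth inhibition were scored against untreated samples. Control was recorded when any one category exceeded the untreated sample.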

[8] = system: Plutella xylostella (Diamondback Moth); experiment: Example B9: Plutella xylostella, artificial diet, 96-well; details: 216 h, application rate of 500 ppm, eggs/L1 larvae, 9 days after infestation
How it was run: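 Test solutions made from 10,000 ppm DMSO stocks were applied to artificial diet in 96-well plates. After drying, ~30 eggs per well were placed on a suspended netted lid so hatching L1 larvae dropped onto the diet. Mortality was scored 9 days after infestation.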

[9] = system: Myzus persicae (Green Peach Aphid); experiment: Example B10: Myzus persicae, sucrose solution, 96-well; details: 120 h, application rate of 50 ppm, 5 days after infestation
Description: Example B10: Myzus persicae (Green Peach Aphid)
Test compounds prepared from 10,000 ppm DMSO stock solutions were applied by a liquid handling robot into 96-well microtiter plates and mixed with a sucrose solution. Parafilm was stretched over the 96-well microtiter plate and a plastic stencil with 96 holes was placed onto the plate. Aphids were sieved into the wells directly onto the Parafilm. The infested plates were closed with a gel blotting card and a second plastic stencil and then turned upside down. The samples were assessed for mortality 5 days after infestation.

[10] = system: Tetranychus urticae (Two-Spotted Spider Mite); experiment: Example B8: Tetranychus urticae, feeding/contact activity; details: 192 h
Procedure: Example B8: Tetranychus urticae (Two-Spotted Spider Mite): Feeding/Contact Activity
Bean leaf discs on agar in 24-well microtiter plates were sprayed with aqueous test solutions prepared from 10,000 ppm DMSO stock solutions. After drying the leaf discs were infested with a mite population of mixed ages. The samples were assessed for mortality on mixed population (mobile stages) 8 days after infestation.

C[C@H](NC(=O)c1cc(OC(F)F)cc(C(F)(F)F)c1)c1nccnc1-n1nccn1 [Compound P39, 3-(difluoromethoxy)-N-[(1S)-1-[3-(triazol-2-yl)pyrazin-2-yl]ethyl]-5-(trifluoromethyl)benzamide]
≥ 80%: percent control (mortality or growth inhibition) at 200 ppm [1] | percent control (mortality, anti-feedant effect or growth inhibition) at 200 ppm [2] | percent control (mortality or growth inhibition) at 200 ppm [3] | percent control (mortality or growth inhibition) at 200 ppm [4] | percent control (mortality, anti-feeding or growth inhibition) at 12.5 ppm [5] | mortality at 12 ppm [6] | percent control (mortality, anti-feedant effect or growth inhibition) at 200 ppm [7]

CC(NC(=O)c1cc(C(F)F)cc(C(F)(F)F)c1)c1nccnc1-n1nccn1 (centres unmarked) [Compound P3, 3-(difluoromethyl)-N-[1-[3-(triazol-2-yl)pyrazin-2-yl]ethyl]-5-(trifluoromethyl)benzamide]
≥ 80%: mortality at 500 ppm [8] | percent control (mortality or growth inhibition) at 200 ppm [1] | percent control (mortality, anti-feedant effect or growth inhibition) at 200 ppm [2] | percent control (mortality or growth inhibition) at 200 ppm [3] | percent control (mortality or growth inhibition) at 200 ppm [4] | mortality at 50 ppm [9] | mortality at 12 ppm [6] | percent control (mortality, anti-feedant effect or growth inhibition) at 200 ppm [7]

CC(NC(=O)c1cc(Cl)cc(Br)c1)c1nccnc1-n1nccn1 (centres unmarked) [Compound P35, 3-bromo-5-chloro-N-[1-[3-(triazol-2-yl)pyrazin-2-yl]ethyl]benzamide]
≥ 80%: mortality at 500 ppm [8] | percent control (mortality or growth inhibition) at 200 ppm [1] | percent control (mortality, anti-feedant effect or growth inhibition) at 200 ppm [2] | percent control (mortality or growth inhibition) at 200 ppm [4] | mortality at 50 ppm [9] | mortality at 200 ppm [10] | percent control (mortality, anti-feedant effect or growth inhibition) at 200 ppm [7]

CC(NC(=O)c1cc(C(F)(F)F)cc(C(C)(C)C#N)c1)c1nccnc1-n1nccn1 (centres unmarked) [Compound P6, 3-(1-cyano-1-methyl-ethyl)-N-[1-[3-(triazol-2-yl)pyrazin-2-yl]ethyl]-5-(trifluoromethyl)benzamide]
≥ 80%: mortality at 500 ppm [8] | percent control (mortality or growth inhibition) at 200 ppm [1] | percent control (mortality, anti-feedant effect or growth inhibition) at 200 ppm [2] | percent control (mortality or growth inhibition) at 200 ppm [3] | percent control (mortality or growth inhibition) at 200 ppm [4] | mortality at 50 ppm [9] | mortality at 12 ppm [6] | percent control (mortality, anti-feedant effect or growth inhibition) at 200 ppm [7]

CC(NC(=O)c1cc(OCC(F)F)cc(C(F)(F)F)c1)c1nccnc1-n1nccn1 (centres unmarked) [Compound P12, 3-(2,2-difluoroethoxy)-N-[1-[3-(triazol-2-yl)pyrazin-2-yl]ethyl]-5-(trifluoromethyl)benzamide]
≥ 80%: mortality at 500 ppm [8] | percent control (mortality, anti-feedant effect or growth inhibition) at 200 ppm [2] | percent control (mortality or growth inhibition) at 200 ppm [3] | percent control (mortality or growth inhibition) at 200 ppm [4] | percent control (mortality, anti-feeding or growth inhibition) at 12.5 ppm [5] | mortality at 50 ppm [9] | mortality at 12 ppm [6] | percent control (mortality, anti-feedant effect or growth inhibition) at 200 ppm [7]
